From patent publication US20070173492A1, “1,2-Diaza-dibenzo[e,h]azulenes for the treatment of central nervous system diseases and disorders” (Pliva-Istrazivacki Institut d.o.o., priority 2003, published 2007)

Columns and labels:
5-HT2A receptor = target: T1, 5-HT2A receptor (Homo sapiens, UniProt P28223); experiment: radioligand binding assay for 5-HT2A receptor ([3H]-ketanserin); conditions: human cortex or recombinant 5-HT2A receptor expressed in CHO-K1 cells; for IC50: read-out: binding affinity to 5-HT2A serotonin receptor expressed as IC50 value; for Ki: read-out: binding affinity to 5-HT2A serotonin receptor, Ki value
T1 construct: expressed in transfected cells; alternatively human cortex tissue
T1 sequence (P28223 whole entry): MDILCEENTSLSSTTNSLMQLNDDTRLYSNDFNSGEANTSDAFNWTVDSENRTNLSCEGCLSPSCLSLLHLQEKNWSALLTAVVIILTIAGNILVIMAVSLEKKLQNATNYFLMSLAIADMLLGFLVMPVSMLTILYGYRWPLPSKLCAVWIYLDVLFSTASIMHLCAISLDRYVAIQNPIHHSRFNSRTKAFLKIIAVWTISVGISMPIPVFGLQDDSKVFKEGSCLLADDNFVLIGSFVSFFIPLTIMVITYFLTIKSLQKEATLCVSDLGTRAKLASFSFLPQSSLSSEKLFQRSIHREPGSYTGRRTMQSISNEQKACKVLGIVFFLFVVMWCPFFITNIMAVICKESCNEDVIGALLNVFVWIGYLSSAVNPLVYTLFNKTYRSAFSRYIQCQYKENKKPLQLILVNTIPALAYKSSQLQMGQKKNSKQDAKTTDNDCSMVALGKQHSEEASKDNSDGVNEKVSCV
Protocol: (§1) The effect of the compounds of the present invention on the neurochemical steady state was determined by in vitro investigations such as a radionuclide-marked radioligand binding assay for 5-HT2A (Bonhaus D. W. Br. J. Pharmacol. 1995, 115:622; Saucier C. J. Neurochem. 1997, 68:1998) and 5-HT2C receptors (Wolf W. A. J. Neurochem. 1997, 69:1449), in vitro binding assay for the σ1 receptor (Thomson W. and Donn R. Arthritis Res. 2002, 4: 302-306) and by in vivo investigations in a tail suspension test (Vogel H. G. and Vogel W. H. Drug Discovery and Evaluation Pharmacological Assays, Springer 1997, 304), in amphetamine-induced hyperlocomotion in mice (Millan M. J. et al, 1998 J. Pharmacol. Exp. Ther. 287: 167-186), in a forced swim test in mice (Porsolt R. D. et al. Arch. Int. Pharmacodyn. 1977, 229:327-336), in meta-chlorophenyl piperazine (m-CPP) test on rats (Drug Dev. Res. 1989, 18:119-144), and in apomorphine, tryptamine, norepinephrine (ATN) test in rats (Arch. Int. Pharmacodyn. 1977, 227:238-253).
(§2) A small concentration of a radioligand having a great affinity for binding to a receptor was incubated with a tissue sample enriched with a certain receptor (1-5 mg of tissue) in a buffered medium (0.2-5 mL). Recombinant human HT2A and HT2C receptors were expressed in CHO-K1 or COS-7 cells and were also used for competitive binding. During incubation the radioligand bound to the receptor. When a binding balance was achieved, the receptors to which the radioligand was bound were separated from those to which said ligand was not bound, and the radioactivity of the receptor/radioligand complex was measured. The interaction of the tested compounds with receptors was tested in competitive binding experiments. Various concentrations of tested compounds were added to the incubation mixture containing a prepared tissue enriched with corresponding receptors and the radioligand. The radioligand binding was inhibited by the test compounds proportionally to the affinity of a certain compound for the receptor and to the concentration of the compound.
The radioligand used for the determination of binding to 5-HT2A receptor was [^3H]-ketanserin and the tissue used was human cortex or recombinant 5-HT2A receptor expressed in CHO-K1 cells.

5-HT2C receptor = target: T2, 5-HT2C receptor (Homo sapiens, UniProt P28335); experiment: radioligand binding assay for 5-HT2C receptor ([3H]-mesulergine); conditions: choroid plexus or recombinant 5-HT2C receptor expressed in CHO-K1 cells; for IC50: read-out: binding affinity to 5-HT2C serotonin receptor expressed as IC50 value; for Ki: read-out: binding affinity to 5-HT2C serotonin receptor, Ki value
T2 construct: expressed in transfected cells; alternatively choroid plexus tissue
T2 sequence (P28335 33-458): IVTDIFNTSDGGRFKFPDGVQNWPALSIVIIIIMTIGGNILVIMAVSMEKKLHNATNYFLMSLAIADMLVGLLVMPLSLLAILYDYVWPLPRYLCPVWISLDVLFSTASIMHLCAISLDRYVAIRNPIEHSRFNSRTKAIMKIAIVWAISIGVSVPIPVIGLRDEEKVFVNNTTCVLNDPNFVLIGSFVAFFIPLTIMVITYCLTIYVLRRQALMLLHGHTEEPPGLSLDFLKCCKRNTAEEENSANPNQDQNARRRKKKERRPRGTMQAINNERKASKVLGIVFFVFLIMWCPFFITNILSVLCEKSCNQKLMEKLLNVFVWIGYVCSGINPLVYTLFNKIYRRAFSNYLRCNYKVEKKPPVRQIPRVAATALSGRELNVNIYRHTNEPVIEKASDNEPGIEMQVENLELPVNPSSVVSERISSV
Protocol: as §1, §2
The radioligand used for the determination of binding to 5-HT2C receptor was [^3H]-mesulergine and the tissue used was choroid plexus or recombinant 5-HT2C receptor expressed in CHO-K1 cells.

Row | IC50 (5-HT2A receptor) | Ki (5-HT2A receptor) | IC50 (5-HT2C receptor) | Ki (5-HT2C receptor) | Compound
1 | < 200 nM | < 100 nM | < 200 nM | < 100 nM | CN(C)CCOCc1n[nH]c2c1-c1ccccc1Oc1ccc(Cl)cc1-2 [[2-(11-chloro-1H-8-oxa-1,2-diaza-dibenzo[e,h]azulen-3-ylmethoxy)-ethyl]-dimethyl-amine]
2 | < 200 nM | < 100 nM | < 200 nM | < 100 nM | CN(C)CCCOCc1c2c(nn1CCc1ccccc1)-c1ccccc1Sc1ccccc1-2 [dimethyl-[3-(2-phenethyl-2H-8-thia-1,2-diaza-dibenzo[e,h]azulen-3-ylmethoxy)-propyl]-amine]
3 | < 200 nM | < 100 nM | < 200 nM | < 100 nM | CN(C)CCCOCc1n[nH]c2c1-c1ccccc1Sc1ccccc1-2 [dimethyl-[3-(11H-8-thia-1,2-diaza-dibenzo[e,h]azulen-3-ylmethoxy)-propyl]-amine]
